Test results reported in PMC8360864, “Benzylmalonyl-CoA dehydrogenase, an enzyme involved in bacterial auxin degradation” (Archives of Microbiology, 2021).

Experiments:
[1] = biological target: T1, Benzylmalonyl-CoA dehydrogenase (IaaF) (Aromatoleum aromaticum, UniProt Q5P5Z9); assay: product formation by HPLC and UV-Vis with purified enzyme; format: biochemical
T1 construct: fusion protein of IaaF with a N-terminal Strep-tag
T1 sequence (Q5P5Z9 1-377): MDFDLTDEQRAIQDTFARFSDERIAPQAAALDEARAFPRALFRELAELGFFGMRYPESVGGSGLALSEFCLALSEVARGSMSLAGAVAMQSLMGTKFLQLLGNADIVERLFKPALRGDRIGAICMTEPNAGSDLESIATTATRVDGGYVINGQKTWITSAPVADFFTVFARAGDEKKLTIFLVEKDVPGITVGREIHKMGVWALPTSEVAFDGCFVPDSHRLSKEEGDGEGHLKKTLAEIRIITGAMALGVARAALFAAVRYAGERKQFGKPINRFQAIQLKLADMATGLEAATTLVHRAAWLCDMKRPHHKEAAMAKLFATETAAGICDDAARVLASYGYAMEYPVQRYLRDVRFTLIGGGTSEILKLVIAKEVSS

purified protein = substrate: CC(C)(COP(=O)(O)OP(=O)(O)OC[C@H]1O[C@@H](n2cnc3c(N)ncnc32)[C@H](O)[C@@H]1OP(=O)(O)O)[C@@H](O)C(=O)NCCC(=O)NCCSC(=O)C(Cc1ccccc1)C(=O)O; assay: purified protein; format: biochemical, Aromatoleum aromaticum; details: FAD active site (GGG motif replacing YEG) proposed

CC(C)(COP(=O)(O)OP(=O)(O)OC[C@H]1O[C@@H](n2cnc3c(N)ncnc32)[C@H](O)[C@@H]1OP(=O)(O)O)[C@@H](O)C(=O)NCCC(=O)NCCSC(=O)/C=C/c1ccccc1 [cinnamoyl-CoA]
product formation by HPLC and UV-Vis with purified enzyme [1]: formation of a new CoA-thioester over time which was identified as cinnamoyl-CoA by its UV–Vis spectrum

B1: Benzylmalonyl-CoA dehydrogenase (IaaF) (Aromatoleum aromaticum EbN1) (protein)
chain: MDFDLTDEQRAIQDTFARFSDERIAPQAAALDEARAFPRALFRELAELGFFGMRYPESVGGSGLALSEFCLALSEVARGSMSLAGAVAMQSLMGTKFLQLLGNADIVERLFKPALRGDRIGAICMTEPNAGSDLESIATTATRVDGGYVINGQKTWITSAPVADFFTVFARAGDEKKLTIFLVEKDVPGITVGREIHKMGVWALPTSEVAFDGCFVPDSHRLSKEEGDGEGHLKKTLAEIRIITGAMALGVARAALFAAVRYAGERKQFGKPINRFQAIQLKLADMATGLEAATTLVHRAAWLCDMKRPHHKEAAMAKLFATETAAGICDDAARVLASYGYAMEYPVQRYLRDVRFTLIGGGTSEILKLVIAKEVSS
notes: fusion protein of IaaF with a N-terminal Strep-tag
Km (purified protein): 1.6 ± 0.3 µM
